Assay results from publication PMC7985445, “Characterization of Plasmodium falciparum Pantothenate Kinase and Identification of Its Inhibitors From Natural Products” (Frontiers in Cellular and Infection Microbiology, 2021).
Values joined by “and” are separate entries in the source; they are usually repeats but may differ in a detail not shown here. Identical values can stand only once. Like-named read-outs stand apart in the source and are kept apart here.

Assays:
PfPanK1 [1] = target: T1, PfPanK1 (Plasmodium falciparum, UniProt Q8ILP4); format: biochemical
T1 sequence (Q8ILP4 1-519): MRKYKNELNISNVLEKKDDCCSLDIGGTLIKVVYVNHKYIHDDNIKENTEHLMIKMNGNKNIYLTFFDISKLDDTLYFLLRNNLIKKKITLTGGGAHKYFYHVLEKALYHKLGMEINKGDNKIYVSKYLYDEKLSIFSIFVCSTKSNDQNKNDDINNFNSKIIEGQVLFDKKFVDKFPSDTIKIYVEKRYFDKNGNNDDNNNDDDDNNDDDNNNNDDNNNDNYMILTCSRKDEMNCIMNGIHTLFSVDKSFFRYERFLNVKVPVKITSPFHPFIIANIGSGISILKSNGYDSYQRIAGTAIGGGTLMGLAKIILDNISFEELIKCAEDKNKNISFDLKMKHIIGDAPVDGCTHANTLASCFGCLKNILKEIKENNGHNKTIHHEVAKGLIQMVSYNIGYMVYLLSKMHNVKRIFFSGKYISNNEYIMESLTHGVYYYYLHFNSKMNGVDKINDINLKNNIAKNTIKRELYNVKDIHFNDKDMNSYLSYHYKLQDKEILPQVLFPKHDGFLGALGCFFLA

PfPanK1 [2] = target: T1, PfPanK1; assay: Screening of natural compounds for PfPanK inhibitors and IC50 determination (recombinant enzyme, ADP Hunter Plus); format: biochemical
Protocol: We screened 247 compounds from the Kitasato Natural Products Library ([Mori et al., 2015]; [Nurkanto et al., 2018]) against PfPanK recombinant enzyme. Compounds were dissolved in 50% DMSO at a final concentration of 1 mg/ml.

[3] = substrate pair pantetheine and ATP
[4] = substrate pair pantetheine and ATP, 120 µM ATP or 100 µM pantetheine, 37°C
[5] = substrate pair pantothenate and ATP
[6] = pantetheine as substrate, 100 μM ATP, pH 8.4, 37°C
[7] = primary screening; compound at 50 µM final concentration (methods: 50 µg/ml); 37°C, 2 h
[8] = metal ion 5 mM, substrate pantetheine, relative to MgCl2, pH 8.4, 37°C
[9] = metal ion 5 mM, substrate pantothenate, relative to MgCl2, pH 8.4, 37°C

## Nc1ncnc2c1ncn2[C@@H]1O[C@H](COP(=O)(O)OP(=O)(O)OP(=O)(O)O)[C@@H](O)[C@H]1O [ATP]
PfPanK1 [1]
  K m: 59.3 ± 7.9 µM
PfPanK1 [1]; pH 8.4
  Relative activity (%) Pantothenate: 100%
PfPanK1 [1]; phosphoryl donor (NTP) 100 µM, substrate pantetheine, relative to ATP, pH 8.4, 37°C
  Relative activity (%) Pantetheine: 100%
PfPanK1 [1]; [3]
  V max: 18.3 ± 3.0 µmol/min/mg
  k cat: 20.55 ± 0.9 s⁻¹
  k cat/K m: 26.6 ± 6.3 min^-1µM^-1
PfPanK1 [1]; [4]
  K m: 43.4 ± 3.3 µM and 43.4 ± 3.4 µM
PfPanK1 [1]; [5]
  V max: 15.9 ± 2.5 µmol/min/mg
  k cat: 16.1 ± 1.72 s⁻¹
  k cat/K m: 16.1 ± 1.0 min^-1µM^-1

## CC(=O)SCCNC(=O)CCNC(=O)[C@H](O)C(C)(C)COP(=O)(O)OP(=O)(O)OC[C@H]1O[C@@H](n2cnc3c(N)ncnc32)[C@H](O)[C@@H]1OP(=O)(O)O [Acetyl CoA]
PfPanK1 [1]; [6]
  Effect on PfPanK1 activity: did not affect PfPanK1 activity
PfPanK1 [1]; pantothenate as substrate
  IC50: > 1 mM

## CC1(C)S[C@@H]2[C@H](NC(=O)[C@H](N)c3ccc(O)cc3)C(=O)N2[C@H]1C(=O)O [Amoxicillin]
PfPanK1 [2]; primary screening; 37°C, 2 h
  inhibition: 45.7%

## CON1C(=O)[C@H]2NC(=O)[C@]13Oc1cc(O)c(Cl)cc1[C@@H]3SS2 [Aspirochlorine]
PfPanK1 [2]; 2 h, primary screening; 37°C
  inhibition: 49.7%

## C/C=C\C=C\[C@@H]1O[C@](O)([C@H](CC)C(=O)NC/C=C/C=C(\C)[C@@H](OC)[C@@H](C)[C@@H]2O[C@H](/C=C/C=C/C=C(\C)C(=O)c3c(O)ccn(C)c3=O)[C@H](O)[C@@H]2O)[C@H](O)[C@H](O)C1(C)C [Aurodox]
PfPanK1 [2]; [7]
  PfPanK1 Inhibition (%): 52.2%

## Nc1ccn([C@@H]2O[C@H](COP(=O)(O)OP(=O)(O)OP(=O)(O)O)[C@@H](O)[C@H]2O)c(=O)n1 [CTP]
PfPanK1 [1]; pH 8.4
  Relative activity (%) Pantetheine: 11.3 ± 0.6%
  Relative activity (%) Pantothenate: 28.1 ± 2.8%

## [Ca+2].[Cl-].[Cl-] [CaCl2]
PfPanK1 [1]; [8]
  Relative activity (%) Pantetheine: 30.5 ± 1.6%
PfPanK1 [1]; [9]
  Relative activity (%) Pantothenate: 39.9 ± 4.7%

## Cc1nnc(SCC2=C(C(=O)O)N3C(=O)[C@@H](NC(=O)Cn4cnnn4)[C@H]3SC2)s1 [Cefazolin]
PfPanK1 [2]; 2 h, primary screening; 37°C
  inhibition: 44.2%

## CC(C)(COP(=O)(O)OP(=O)(O)OC[C@H]1O[C@@H](n2cnc3c(N)ncnc32)[C@H](O)[C@@H]1OP(=O)(O)O)[C@@H](O)C(=O)NCCC(=O)NCCS [CoA, Coenzyme A]
PfPanK1 [1]; pH 8.4
  Effect on PfPanK1 activity: inhibited
PfPanK1 [1]; [6]
  Effect on PfPanK1 activity: inhibited

## [Cl-].[Cl-].[Co+2] [CoCl2]
PfPanK1 [1]; pH 8.4, 37°C
  Relative activity (%) Pantetheine: 22.3 ± 1.0%
  Relative activity (%) Pantothenate: 25.8 ± 1.9%

## [Cl][Cu][Cl] [CuCl2]
PfPanK1 [1]; [8]
  Relative activity (%) Pantetheine: 8.5 ± 1.3%
PfPanK1 [1]; [9]
  Relative activity (%) Pantothenate: 16.4 ± 1.5%

## CN[C@@H]1[C@H](O[C@H]2[C@H](O[C@H]3[C@H](O)[C@@H](O)[C@H](NC(=N)N)[C@@H](O)[C@@H]3NC(=N)N)O[C@@H](C)[C@]2(O)CO)O[C@@H](CO)[C@H](O)[C@H]1O [Dihydrostreptomycin]
PfPanK1 [2]; 2 h, primary screening; 37°C
  inhibition: 44.7%

## CS[C@H]1SC[C@H]2C(=O)N(C)[C@@H](C(C)C)C(=O)OC[C@@H](NC(=O)c3cnc4ccccc4n3)C(=O)N[C@@H](C)C(=O)N(C)[C@@H]1C(=O)N(C)[C@@H](C(C)C)C(=O)OC[C@@H](NC(=O)c1cnc3ccccc3n1)C(=O)N[C@@H](C)C(=O)N2C [Echinomycin]
PfPanK1 [2]; 2 h, primary screening; 37°C
  inhibition: 47.1%

## [Cl][Fe][Cl] [FeCl2]
PfPanK1 [1]; [8]
  Relative activity (%) Pantetheine: 58.3 ± 3.3%
PfPanK1 [1]; metal ion 5 mM, substrate pantetheine, relative to MgCl2, pH 8.4, 37°C, listed as Ferrous cation
  Relative activity (%) Pantetheine: approximately 60%
PfPanK1 [1]; [9]
  Relative activity (%) Pantothenate: 104.7 ± 14.9%

## Nc1nc2c(ncn2[C@@H]2O[C@H](COP(=O)(O)OP(=O)(O)OP(=O)(O)O)[C@@H](O)[C@H]2O)c(=O)[nH]1 [GTP]
PfPanK1 [1]; pH 8.4
  Relative activity (%) Pantetheine: 106.5 ± 4.4%
  Relative activity (%) Pantothenate: 107.6 ± 8.1%

## [Cl-].[K+] [KCl]
PfPanK1 [1]; [8]
  Relative activity (%) Pantetheine: 33.6 ± 3.4%
PfPanK1 [1]; [9]
  Relative activity (%) Pantothenate: 29.7 ± 2.3%

## CO[C@@H]1[C@@H](O[C@@H]2O[C@H](C)[C@@H](O[C@H]3C[C@@](C)(O)[C@@H](OC(=O)CC(C)C)[C@H](C)O3)[C@H](N(C)C)[C@H]2O)[C@@H](CC=O)C[C@@H](C)[C@@H](O)/C=C/C=C/C[C@@H](C)OC(=O)C[C@H]1OC(C)=O [Leucomycin A3]
PfPanK1 [2]; 2 h, primary screening; 37°C
  inhibition: 40.1%

## [Cl-].[Li+] [LiCl2]
PfPanK1 [1]; [8]
  Relative activity (%) Pantetheine: 32.6 ± 4.1%
PfPanK1 [1]; [9]
  Relative activity (%) Pantothenate: 37.9 ± 9.6%

## CCC[C@@H]1C[C@@H](C(=O)N[C@@H]([C@H]2O[C@H](SC)[C@H](O)[C@@H](O)[C@H]2O)[C@@H](C)O)N(C)C1 [Lincomycin]
PfPanK1 [2]; 2 h, primary screening; 37°C
  inhibition: 41.3%

## NC[C@@H]1O[C@H](O[C@H]2[C@@H](O)[C@H](O[C@@H]3[C@@H](O)[C@H](N)C[C@H](N)[C@H]3O[C@H]3O[C@H](CO)[C@@H](O)C[C@H]3N)O[C@@H]2CO)[C@H](N)[C@@H](O)[C@@H]1O[C@H]1O[C@H](CO)[C@@H](O)[C@H](O)[C@@H]1O [Lividomycin A]
PfPanK1 [2]; 2 h, primary screening; 37°C
  inhibition: 44%

## [Cl-].[Cl-].[Mg+2] [MgCl2]
PfPanK1 [1]; [8]
  Relative activity (%) Pantetheine: 100%
PfPanK1 [1]; [9]
  Relative activity (%) Pantothenate: 100%

## [Cl][Mn][Cl] [MnCl2]
PfPanK1 [1]; [8]
  Relative activity (%) Pantetheine: 55.3 ± 0.1%
PfPanK1 [1]; [9]
  Relative activity (%) Pantothenate: 41.7 ± 8.4%

## [Cl-].[Na+] [NaCl]
PfPanK1 [1]; pH 8.4
  Relative activity (%) Pantetheine: 33.1 ± 6.2%
  Relative activity (%) Pantothenate: 41.4 ± 5.3%

## [Cl][Ni][Cl] [NiCl2]
PfPanK1 [1]; [8]
  Relative activity (%) Pantetheine: 41.4 ± 3.4%
PfPanK1 [1]; [9]
  Relative activity (%) Pantothenate: 49.0 ± 5.5%

## CC(C)(CO)[C@@H](O)C(=O)NCCC(=O)NCCS [Pantetheine]
PfPanK1 [1]; [3]
  V max: 19.6 ± 1.2 µmol/min/mg
  k cat: 19.52 ± 0.417 s⁻¹
  k cat/K m: 25.6 ± 0.7 min^-1µM^-1
PfPanK1 [1]; [4]
  K m: 45.7 ± 6.9 µM

## CC(C)(CO)[C@@H](O)C(=O)NCCC(=O)O [Pantothenate]
PfPanK1 [1]
  K m: 44.6 ± 5.6 µM
  k cat/K m: 19.1 ± 1.0 min^-1µM^-1
PfPanK1 [1]; [5]
  V max: 14.2 ± 0.71 µmol/min/mg
  k cat: 14.2 ± 1.28 s⁻¹

## NC[C@H]1O[C@H](O[C@H]2[C@H](O[C@@H]3O[C@H](CO)[C@@H](O)[C@H]3O)[C@@H](O)[C@H](N)C[C@@H]2N)[C@H](N)[C@@H](O)[C@@H]1O [Ribostamycin]
PfPanK1 [2]; 2 h, primary screening; 37°C
  inhibition: 46.6%

## CN[C@@H]1[C@H](O)[C@H](NC)[C@H]2O[C@@]3(O)C(=O)C[C@@H](C)O[C@H]3O[C@@H]2[C@H]1O [Spectinomycin (Actinospectacin), Spectinomycin]
PfPanK1 [2]; [7]
  PfPanK1 Inhibition (%): 55.0%

## CN[C@@H]1[C@H](O)[C@H](NC)[C@H]2O[C@@]3(O)C(=O)C[C@@H](C)O[C@H]3O[C@@H]2[C@H]1O [Spectinomycin (Trobicin), Spectinomycin]
PfPanK1 [2]; 2 h, primary screening; 37°C
  inhibition: 47.8%

## Cc1cn([C@H]2C[C@H](O)[C@@H](COP(=O)(O)OP(=O)(O)OP(=O)(O)O)O2)c(=O)[nH]c1=O [TTP]
PfPanK1 [1]; pH 8.4
  Relative activity (%) Pantetheine: 0.0 ± 0.0%
  Relative activity (%) Pantothenate: 13.1 ± 1.0%

## C=C/C(C)=C/[C@@]1(C)SC(=O)C(C)=C1O [Thiolactomycin]
PfPanK1 [2]; primary screening; 37°C, 2 h
  inhibition: 42.4%

## CC(/C=C/C(O)=C1/C(=O)CNC1=O)=C\[C@@H](C)[C@H]1O[C@@]2(C)O[C@H](C(=O)[C@H]3O[C@]32C)[C@@H]1C [Tirandamycin A]
PfPanK1 [2]; [7]
  PfPanK1 Inhibition (%): 49.7%

## CC(/C=C/C(=O)NO)=C\[C@@H](C)C(=O)c1ccc(N(C)C)cc1 [Trichostatin]
PfPanK1 [2]; primary screening; 37°C, 2 h
  inhibition: 47.2%

## O=c1ccn([C@@H]2O[C@H](COP(=O)(O)OP(=O)(O)OP(=O)(O)O)[C@@H](O)[C@H]2O)c(=O)[nH]1 [UTP]
PfPanK1 [1]; pH 8.4
  Relative activity (%) Pantetheine: 23.8 ± 2.3%
  Relative activity (%) Pantothenate: 64.1 ± 1.0%

## [Cl-].[Cl-].[Zn+2] [ZnCl2]
PfPanK1 [1]; [8]
  Relative activity (%) Pantetheine: 29.0 ± 0.6%
PfPanK1 [1]; [9]
  Relative activity (%) Pantothenate: 35.6 ± 5.6%

## Nc1ncnc2c1ncn2[C@H]1C[C@H](O)[C@@H](COP(=O)(O)OP(=O)(O)OP(=O)(O)O)O1 [dATP]
PfPanK1 [1]; pH 8.4
  Relative activity (%) Pantetheine: 8.5 ± 2.7%
  Relative activity (%) Pantothenate: 9.0 ± 2.2%

## CC(C)(CO)C(O)C(=O)NCCCO (stereo not shown) [panthenol]
PfPanK1 [1]; high concentrations of panthenol (e.g., 0.5 mM), regardless of the substrates
  Increase of enzyme activity: up to 40%
PfPanK1 [1]; [6]
  Effect on PfPanK1 activity: did not inhibit PfPanK1 activity
PfPanK1 [1]; pantothenate as substrate, 100 μM ATP, pH 8.4, 37°C
  Effect on PfPanK1 activity: did not inhibit PfPanK1 activity

## Gardimycin
PfPanK1 [2]; [7]
  PfPanK1 Inhibition (%): 42.5%

## Gramicidin NF
PfPanK1 [2]; [7]
  PfPanK1 Inhibition (%): 45.5%

## Thaimycin
PfPanK1 [2]; [7]
  PfPanK1 Inhibition (%): 53.9%
